The text below walks through data of PubChem BioAssay AID1745844 (Carcinogenic Potency Database (CPDB), 2022).

Activity calls are given as the source filed them. The rule behind the calls is not given here.

This data set deals with rodent lifetime carcinogenesis bioassay, tumor incidence TD50. Nature of the data set: carcinogenic potency in animals, long-term in vivo studies, CPDB compilation (AID 1745844).

Take `CN(C)CCN(Cc1cccs1)c1ccccn1`: the TD50 is 150 mg/kg/day (hamster, strain Syrian Golden, males, by gavage, site: liver, lesion: neoplastic nodule, dosed 58 weeks, study length 61 weeks); 61.6 mg/kg/day (rat, strain Fischer 344, females, in feed, site: liver, lesion: hepatocellular carcinoma, dosed 110 weeks, study length 133 weeks); 11.8 mg/kg/day (rat, strain Fischer 344, females, in feed, site: liver, lesion: neoplastic nodule, dosed 110 weeks, study length 133 weeks); 7.65 mg/kg/day (rat, strain Fischer 344, females, in feed, site: liver, lesion: several types, types named in the paper, dosed 110 weeks, study length 133 weeks); 400 mg/kg/day (rat, strain Fischer 344, males, in feed, site: liver, lesion: cholangiocarcinoma, dosed 110 weeks, study length 133 weeks); 26.4 mg/kg/day (rat, strain Fischer 344, males, in feed, site: liver, lesion: hepatocellular carcinoma, solid, dosed 73 weeks, study length 73 weeks). For the same compound, the TD50 is, setting by setting: (rat, strain Fischer 344, males, in feed, site: liver, lesion: hepatocellular carcinoma, trabecular, dosed 73 weeks, study length 73 weeks) 26.4 mg/kg/day; (rat, strain Fischer 344, males, in feed, site: liver, lesion: hepatocellular carcinoma, dosed 73 weeks, study length 73 weeks) 14.7 mg/kg/day; (rat, strain Fischer 344, males, in feed, site: liver, lesion: hepatocellular carcinoma, dosed 110 weeks, study length 133 weeks) 77 mg/kg/day; (rat, strain Fischer 344, males, in feed, site: liver, lesion: neoplastic nodule, dosed 110 weeks, study length 133 weeks) 11.1 mg/kg/day; (rat, strain Fischer 344, males, in feed, site: liver, lesion: several types, types named in the paper, dosed 110 weeks, study length 133 weeks) 7.7 mg/kg/day. Besides, the carcinogen call by setting is: (rat, strain Fischer 344, males, in feed, site: liver, lesion: basophil adenoma, dosed 73 weeks, study length 73 weeks) “positive”; (rat, strain Fischer 344, males, in feed, site: liver, lesion: eosinophilic adenoma, dosed 73 weeks, study length 73 weeks) “positive”.
As for `C#C[C@]1(OC(C)=O)CC[C@H]2[C@@H]3CCC4=CC(=O)CC[C@@H]4[C@H]3CC[C@@]21C` (tested in a mixture with another compound), the carcinogen call is “negative (inactive)” (monkey, strain Rhesus [Macaca mulatta], females, in feed, site: pancreatic duct, lesion: adenoma, dosed 391 weeks, study length 521 weeks); “negative (inactive)” (mouse, strain C57L/He x 129/Rr x C3HeB/De x SWR/Ly, females, by gavage, site: any site (literature study), lesion: several types, types named in the paper, dosed 69 weeks, study length 69 weeks); “negative (inactive)” (mouse, strain C57L/He x 129/Rr x C3HeB/De x SWR/Ly, females, by gavage, site: any site (literature study), lesion: several types, types named in the paper, dosed 69 weeks, study length 82 weeks); “negative (inactive)” (mouse, strain C57L/He x 129/Rr x C3HeB/De x SWR/Ly, females, by gavage, site: lung, lesion: one or several types, types not named, dosed 69 weeks, study length 69 weeks). In addition, the TD50 (monkey, strain Rhesus [Macaca mulatta], females, in feed, site: skin, lesion: papilloma, dosed 391 weeks, study length 521 weeks) is 10.1 mg/kg/day (inactive); the TD50 (monkey, strain Rhesus [Macaca mulatta], females, in feed, site: uterus, lesion: leiomyoma, dosed 391 weeks, study length 521 weeks) was 6.42 mg/kg/day (inactive); the TD50 (mouse, strain C57L, females, by gavage, site: pituitary gland, lesion: one or several types, types not named, dosed 89 weeks, study length 89 weeks) was 1.34 mg/kg/day; the TD50 (rat, strain Sprague-Dawley albino, both sexes, in feed, site: any site (literature study), lesion: several types, types named in the paper, dosed 104 weeks, study length 104 weeks) turned out to be 14.2 mg/kg/day; the TD50 (rat, strain Sprague-Dawley albino, both sexes, in feed, site: liver, lesion: hepatocellular adenoma, dosed 104 weeks, study length 104 weeks) is 7.59 mg/kg/day; the TD50 (rat, strain Sprague-Dawley albino, both sexes, in feed, site: liver, lesion: hyperplastic nodule, dosed 104 weeks, study length 104 weeks) is 1.94 mg/kg/day. Besides, the TD50 is, setting by setting: (rat, strain Sprague-Dawley albino, both sexes, in feed, site: mammary gland, lesion: adenocarcinoma, dosed 104 weeks, study length 104 weeks) 76.8 mg/kg/day; (rat, strain Sprague-Dawley albino, both sexes, in feed, site: mammary gland, lesion: adenoma, dosed 104 weeks, study length 104 weeks) 14.8 mg/kg/day; (rat, strain Sprague-Dawley albino, both sexes, in feed, site: mammary gland, lesion: fibroepithelial tumor, dosed 104 weeks, study length 104 weeks) 21 mg/kg/day; (rat, strain Sprague-Dawley albino, both sexes, in feed, site: mammary gland, lesion: several types, types named in the paper, dosed 104 weeks, study length 104 weeks) 6.66 mg/kg/day; (rat, strain Sprague-Dawley albino, both sexes, in feed, site: pituitary gland, lesion: chromophobe adenoma, dosed 104 weeks, study length 104 weeks) 5.31 mg/kg/day; (rat, strain Sprague-Dawley albino, both sexes, in feed, site: uterus, lesion: adenomatous endometrial polyp, dosed 104 weeks, study length 104 weeks) 27.4 mg/kg/day.
As for `Cc1cccc(N)c1`, the TD50 reads like this: (mouse, strain CD-1 HaM/ICR, females, in feed, site: any site (literature study), lesion: several types, types named in the paper, dosed 77 weeks, study length 81 weeks) 1950 mg/kg/day (inactive); (mouse, strain CD-1 HaM/ICR, females, in feed, site: liver, lesion: several types, types named in the paper, dosed 77 weeks, study length 90 weeks) 9990 mg/kg/day (inactive); (mouse, strain CD-1 HaM/ICR, males, in feed, site: liver, lesion: hepatoma, dosed 77 weeks, study length 90 weeks) 1440 mg/kg/day; (mouse, strain CD-1 HaM/ICR, males, in feed, site: liver, lesion: several types, types named in the paper, dosed 77 weeks, study length 90 weeks) 6770 mg/kg/day; (rat, strain Charles River CD (Sprague-Dawley), males, in feed, site: any site (literature study), lesion: several types, types named in the paper, dosed 77 weeks, study length 98 weeks) 98.4 mg/kg/day (inactive). For the same compound, the carcinogen call was “negative (inactive)” (mouse, strain CD-1 HaM/ICR, females, in feed, site: any site (literature study), lesion: several types, types named in the paper, dosed 77 weeks, study length 90 weeks); “negative (inactive)” (mouse, strain CD-1 HaM/ICR, females, in feed, site: liver, lesion: several types, types named in the paper, dosed 77 weeks, study length 81 weeks); “negative (inactive)” (mouse, strain CD-1 HaM/ICR, females, in feed, site: lung, lesion: several types, types named in the paper, dosed 77 weeks, study length 81 weeks); “negative (inactive)” (mouse, strain CD-1 HaM/ICR, females, in feed, site: lung, lesion: several types, types named in the paper, dosed 77 weeks, study length 90 weeks); “negative (inactive)” (mouse, strain CD-1 HaM/ICR, males, in feed, site: lung, lesion: several types, types named in the paper, dosed 77 weeks, study length 90 weeks); “negative (inactive)” (rat, strain Charles River CD (Sprague-Dawley), males, in feed, site: liver, lesion: several types, types named in the paper, dosed 77 weeks, study length 98 weeks).
As to `CCCCCN(N=O)C(=N)N[N+](=O)[O-]`, under “rat, strain Wistar, males, in drinking water, site: stomach, glandular, lesion: one or several types, types not named, dosed 52 weeks, study length 78 weeks”, the carcinogen call was “negative (inactive)”.
As for `CCC[CH2][Sn]([CH2]CCC)([O]C(C)=O)[O]C(C)=O`, the TD50 was 29.6 mg/kg/day (mouse, strain B6C3F1, females, in feed, site: any site (literature study), lesion: several types, types named in the paper, dosed 78 weeks, study length 92 weeks); 31.6 mg/kg/day (mouse, strain B6C3F1, females, in feed, site: liver, lesion: hepatocellular adenoma + hepatocellular carcinoma + neoplastic nodule, dosed 78 weeks, study length 92 weeks); 31.6 mg/kg/day (inactive) (mouse, strain B6C3F1, females, in feed, site: liver, lesion: hepatocellular adenoma, dosed 78 weeks, study length 92 weeks); 178 mg/kg/day (inactive) (mouse, strain B6C3F1, males, in feed, site: any site (literature study), lesion: several types, types named in the paper, dosed 78 weeks, study length 92 weeks); 29.2 mg/kg/day (mouse, strain B6C3F1, males, in feed, site: liver, lesion: hepatocellular adenoma + hepatocellular carcinoma + neoplastic nodule, dosed 78 weeks, study length 92 weeks); 94.4 mg/kg/day (rat, strain Fischer 344, females, in feed, site: liver, lesion: hepatocellular adenoma + hepatocellular carcinoma + neoplastic nodule, dosed 78 weeks, study length 104 weeks). Where the note is “rat, strain Fischer 344, males, in feed, site: any site (literature study), lesion: several types, types named in the paper, dosed 78 weeks, study length 104 weeks”, the carcinogen call was “negative (inactive)”.
For the compound `C=C1C[C@]23C[C@@]1(O)CC[C@H]2[C@@]12C=C[C@H](O)[C@@](C)(C(=O)O1)[C@H]2[C@@H]3C(=O)O`, the carcinogen call runs as follows: (mouse, strain B6AKF1, females, oral dosing, site: any site (literature study), lesion: several types, types named in the paper, dosed 76 weeks, study length 76 weeks) “negative (inactive)”; (mouse, strain B6AKF1, females, oral dosing, site: liver, lesion: hepatoma, dosed 76 weeks, study length 76 weeks) “negative (inactive)”; (mouse, strain B6AKF1, females, oral dosing, site: lung, lesion: adenoma, dosed 76 weeks, study length 76 weeks) “negative (inactive)”; (mouse, strain B6C3F1, females, oral dosing, site: liver, lesion: hepatoma, dosed 76 weeks, study length 76 weeks) “negative (inactive)”; (mouse, strain B6C3F1, females, oral dosing, site: lung, lesion: several types, types named in the paper, dosed 76 weeks, study length 76 weeks) “negative (inactive)”. The TD50 (mouse, strain B6AKF1, males, oral dosing, site: any site (literature study), lesion: several types, types named in the paper, dosed 76 weeks, study length 76 weeks) was 151 mg/kg/day (inactive); the TD50 (mouse, strain B6AKF1, males, oral dosing, site: liver, lesion: hepatoma, dosed 76 weeks, study length 76 weeks) is 316 mg/kg/day (inactive); the TD50 (mouse, strain B6AKF1, males, oral dosing, site: lung, lesion: several types, types named in the paper, dosed 76 weeks, study length 76 weeks) was 460 mg/kg/day (inactive); the TD50 (mouse, strain B6C3F1, females, oral dosing, site: any site (literature study), lesion: several types, types named in the paper, dosed 76 weeks, study length 76 weeks) was 1150 mg/kg/day (inactive); the TD50 (mouse, strain B6C3F1, males, oral dosing, site: any site (literature study), lesion: several types, types named in the paper, dosed 76 weeks, study length 76 weeks) was 214 mg/kg/day (inactive); the TD50 (mouse, strain B6C3F1, males, oral dosing, site: liver, lesion: hepatoma, dosed 76 weeks, study length 76 weeks) was 460 mg/kg/day (inactive). Also, for the setting “mouse, strain B6C3F1, males, oral dosing, site: lung, lesion: adenoma, dosed 76 weeks, study length 76 weeks”, the TD50 was 952 mg/kg/day (inactive).
